Drawing on patent publication US8735414B2 (priority 2009, dated 2014), this text covers IC50 and melting point for 26 molecules.

Data set [1] deals with bicistronic HCV replicon (replicon RNA, GenBank Accession No. AJ242654). Put plainly: HCV Replicon Assay. It counts as cell-based. To be noted: Hepatitis C virus, 72 h, read-out: Replicon IC50. Background: A replicon is a self-replicating genome or part of one, used to study replication in cells.

The term IC50 denotes the concentration that gives 50% inhibition. A word on the melting point: it is the temperature, or range, at which the solid turns liquid. Molecule `CC(C)NS(=O)(=O)c1ccc(-c2c(C#N)c3cc(F)ccc3n2C2CCOC2)nc1` (stereo not shown) [compound 47, 6-[3-cyano-5-fluoro-1-(tetrahydrofuran-3-yl)-1H-indol-2-yl]-N-(propan-2-yl)pyridine-3-sulfonamide] gave a melting point of 185 to 188 °C. Besides, the concentration for half-maximal inhibition (IC50) in data set [1] is less than 500 nM.

As to `Cc1ccc2c(C#N)c(-c3ccc(S(=O)(=O)N[C@@H](C)C(F)(F)F)cn3)n(CC3CC3)c2c1` [compound 353, 6-[3-cyano-1-(cyclopropylmethyl)-6-methyl-1H-indol-2-yl]-N-[(2S)-1,1,1-trifluoropropan-2-yl]pyridine-3-sulfonamide], the melting point was 165 to 168 °C. In addition, in data set [1], the IC50 is less than 500 nM.

Take `CC(C)n1c(-c2ccc(S(=O)(=O)N[C@@H](C)C3CC3)cn2)c(C#N)c2cc(F)ccc21` [compound 604, 6-[3-cyano-5-fluoro-1-(propan-2-yl)-1H-indol-2-yl]-N-[(1S)-1-cyclopropylethyl]pyridine-3-sulfonamide]: the melting point lay within 138 to 143 °C. The IC50 in data set [1] is less than 500 nM.

Turning to `C[C@H](NS(=O)(=O)c1ccc(-c2c(C#N)c3ccc(F)cc3n2C2CCC2)nc1)C(F)(F)F` [compound 395, 6-(3-cyano-1-cyclobutyl-6-fluoro-1H-indol-2-yl)-N-[(2S)-1,1,1-trifluoropropan-2-yl]pyridine-3-sulfonamide], the melting point is 171 to 172 °C. Further, the IC50 in data set [1] was less than 500 nM.

For `C[C@H](NS(=O)(=O)c1ccc(-c2c(C#N)c3cc(CC(F)F)ccc3n2C2CCC2)nc1)C(F)(F)F` [compound 702, 6-[3-cyano-1-cyclobutyl-5-(2,2-difluoroethyl)-1H-indol-2-yl]-N-[(2S)-1,1,1-trifluoropropan-2-yl]pyridine-3-sulfonamide], the melting point is 143 to 147 °C. Moreover, the IC50 in data set [1] was less than 500 nM.

`CCc1cc2c(cc1F)c(C(N)=O)c(-c1ccc(NS(=O)(=O)C(C)(C)C)nc1)n2C1CCCCC1` [compound 1037, 2-{6-[(tert-butylsulfonyl)amino]pyridin-3-yl}-1-cyclohexyl-6-ethyl-5-fluoro-1H-indole-3-carboxamide] showed a melting point of 297 to 299 °C. In data set [1], the IC50 is less than 500 nM.

Molecule `CCc1cc2c(cc1F)c(C#N)c(-c1ccc(S(=O)(=O)N[C@@H](C)C(F)(F)F)cn1)n2-c1ccc(F)c(F)c1` [compound 1061, 6-[3-cyano-1-(3,4-difluorophenyl)-6-ethyl-5-fluoro-1H-indol-2-yl]-N-[(2S)-1,1,1-trifluoropropan-2-yl]pyridine-3-sulfonamide] registered a melting point of 229 to 235 °C. The IC50 in data set [1] is less than 500 nM.

`C[C@H](NS(=O)(=O)c1ccc(-c2c(C#N)c3cc(Cl)ccc3n2-c2ccccn2)nc1)C1CC1` [compound 490, 6-[5-chloro-3-cyano-1-(pyridin-2-yl)-1H-indol-2-yl]-N-[(1S)-1-cyclopropylethyl]pyridine-3-sulfonamide] yielded a melting point of 136 to 139 °C. Also, the IC50 in data set [1] is 2000 to 5000 nM.

Take `CCc1cc2c(cc1F)c(C(N)=O)c(-c1ccc(NS(=O)(=O)C(C)(C)C)cn1)n2C1CCCCC1` [compound 999, 2-{5-[(tert-butylsulfonyl)amino]pyridin-2-yl}-1-cyclohexyl-6-ethyl-5-fluoro-1H-indole-3-carboxamide]: the melting point was in the range of 264 to 265 °C. In addition, the IC50 in data set [1] is less than 500 nM.

In turn, `Cc1ccc2c(c1)c(C#N)c(-c1ncc(S(=O)(=O)NC(CF)CF)cn1)n2C1CCC1` [compound 122, 2-(3-cyano-1-cyclobutyl-5-methyl-1H-indol-2-yl)-N-(1,3-difluoropropan-2-yl)pyrimidine-5-sulfonamide] had a melting point of 140 to 145 °C. The IC50 in data set [1] was less than 500 nM.

`CCc1cc2c(cc1F)c(C#N)c(-c1ccc(S(=O)(=O)N[C@@H](C)C(F)(F)F)cn1)n2-c1cc(Cl)ccn1` [compound 993, 6-[1-(4-chloropyridin-2-yl)-3-cyano-6-ethyl-5-fluoro-1H-indol-2-yl]-N-[(2S)-1,1,1-trifluoropropan-2-yl]pyridine-3-sulfonamide]: the melting point lay in the range of 185 to 190 °C. In data set [1], the half-inhibitory concentration (IC50) was less than 500 nM.

`Cc1cc2c(cc1O)c(C#N)c(-c1ccc(S(=O)(=O)N[C@@H](C)C(F)(F)F)cn1)n2C1CCCC1` [compound 691, 6-(3-cyano-1-cyclopentyl-5-hydroxy-6-methyl-1H-indol-2-yl)-N-[(2S)-1,1,1-trifluoropropan-2-yl]pyridine-3-sulfonamide] yielded a melting point of 232 to 233 °C. The IC50 in data set [1] is less than 500 nM.

`CCc1cc2c(cc1F)c(C(N)=O)c(-c1ccc(S(=O)(=O)N[C@@H](C)C(F)(F)F)cn1)n2-c1ncc(C)cn1` [compound 1047, 6-ethyl-5-fluoro-1-(5-methylpyrimidin-2-yl)-2-(5-{[(2S)-1,1,1-trifluoropropan-2-yl]sulfamoyl}pyridin-2-yl)-1H-indole-3-carboxamide] showed a melting point of 257 to 261 °C. Also, in data set [1], the half-maximal inhibitory concentration (IC50) was in the range of 500 to 2000 nM.

As to `Cc1cc2c(cc1F)c(C(=O)O)c(-c1ncc(S(=O)(=O)NC(C)(C)C)cn1)n2C1CCC1` [compound 794, 2-[5-(tert-butylsulfamoyl)pyrimidin-2-yl]-1-cyclobutyl-5-fluoro-6-methyl-1H-indole-3-carboxylic acid], the melting point was in the range of 194 to 201 °C. In data set [1], the IC50 fell in the range of 2000 to 5000 nM.

As for `Cc1cc2c(C#N)c(-c3ccc(S(=O)(=O)NC(CF)CF)cn3)n(C3CCCC3)c2cc1F` [compound 482, 6-(3-cyano-1-cyclopentyl-6-fluoro-5-methyl-1H-indol-2-yl)-N-(1,3-difluoropropan-2-yl)pyridine-3-sulfonamide], the melting point was 207 to 211 °C. Moreover, the IC50 in data set [1] is less than 500 nM.

`CC(C)(NS(=O)(=O)c1ccc(-c2c(C(N)=O)c3cc(F)c(C4CC4)cc3n2C2CCCC2)nc1)C(F)(F)F` [compound 850, 1-cyclopentyl-6-cyclopropyl-5-fluoro-2-{5-[(1,1,1-trifluoro-2-methylpropan-2-yl)sulfamoyl]pyridin-2-yl}-1H-indole-3-carboxamide] yielded a melting point of 236 to 237 °C. In data set [1], the concentration for half-maximal inhibition (IC50) is less than 500 nM.

`CCc1cc2c(cc1F)c(C(N)=O)c(-c1ccc(S(=O)(=O)N[C@@H](C)C(F)(F)F)cn1)n2-c1ccc(Cl)cc1` [compound 1020, 1-(4-chlorophenyl)-6-ethyl-5-fluoro-2-(5-{[(2S)-1,1,1-trifluoropropan-2-yl]sulfamoyl}pyridin-2-yl)-1H-indole-3-carboxamide] yielded a melting point of 240 to 247 °C. Further, the IC50 in data set [1] was less than 500 nM.

In turn, `C[C@@H](NS(=O)(=O)c1ccc(-c2c(C#N)c3ccc(OC(F)F)cc3n2-c2ccccn2)nc1)C(F)(F)F` [compound 534, 6-[3-cyano-6-(difluoromethoxy)-1-(pyridin-2-yl)-1H-indol-2-yl]-N-[(2R)-1,1,1-trifluoropropan-2-yl]pyridine-3-sulfonamide] gave a melting point of 159 to 161 °C. Moreover, the IC50 in data set [1] was less than 500 nM.

The molecule `CCc1cc2c(cc1F)c(C#N)c(-c1ccc(S(=O)(=O)NC3(C(F)(F)F)CC3)cn1)n2C1CCCC1` [compound 637, 6-(3-cyano-1-cyclopentyl-6-ethyl-5-fluoro-1H-indol-2-yl)-N-[1-(trifluoromethyl)cyclopropyl]pyridine-3-sulfonamide] came in with a melting point of 198 to 199 °C. Besides, in data set [1], the IC50 was less than 500 nM.

With `CC(C)NS(=O)(=O)c1ccc(-c2c(C#N)c3cc(F)ccc3n2CC2CC2)nc1` [compound 6, 6-[3-cyano-1-(cyclopropylmethyl)-5-fluoro-1H-indol-2-yl]-N-(propan-2-yl)pyridine-3-sulfonamide], the melting point fell in the range of 160 to 162 °C. Further, the IC50 in data set [1] is less than 500 nM.

In the case of `Cc1ccc2c(c1)c(C#N)c(-c1ncc(S(=O)(=O)N[C@@H](C)C(F)(F)F)cn1)n2CC1CC1` [compound 389, 2-[3-cyano-1-(cyclopropylmethyl)-5-methyl-1H-indol-2-yl]-N-[(2S)-1,1,1-trifluoropropan-2-yl]pyrimidine-5-sulfonamide], the melting point lay within 220 to 223 °C. In addition, the concentration for half-maximal inhibition (IC50) in data set [1] is 500 to 2000 nM.

The molecule `N#Cc1c(-c2ncc(S(=O)(=O)NC(CF)CF)cn2)n(C2CCC2)c2cc(Cl)ccc12` [compound 176, 2-(6-chloro-3-cyano-1-cyclobutyl-1H-indol-2-yl)-N-(1,3-difluoropropan-2-yl)pyrimidine-5-sulfonamide] gave a melting point of 243 to 246 °C. For the same molecule, in data set [1], the IC50 was less than 500 nM.

Consider `COc1ccc2c(C#N)c(-c3ncc(S(=O)(=O)NC(CF)CF)cn3)n(C3CCC3)c2c1` [compound 230, 2-(3-cyano-1-cyclobutyl-6-methoxy-1H-indol-2-yl)-N-(1,3-difluoropropan-2-yl)pyrimidine-5-sulfonamide], for which the melting point was in the range of 217 to 219 °C. The IC50 in data set [1] was less than 500 nM.

In turn, `CC(C)(C)S(=O)(=O)Nc1ccc(-c2c(C#N)c3ccc(Oc4ncccn4)cc3n2C2CCC2)cn1` [compound 268, N-{5-[3-cyano-1-cyclobutyl-6-(pyrimidin-2-yloxy)-1H-indol-2-yl]pyridin-2-yl}-2-methylpropane-2-sulfonamide] yielded a melting point of 275 to 277 °C. Besides, in data set [1], the IC50 is less than 500 nM.

On to `COc1ccc(-n2c(-c3ncc(S(=O)(=O)NC(CF)CF)cn3)c(C#N)c3cc(F)ccc32)cc1` [compound 337, 2-[3-cyano-5-fluoro-1-(4-methoxyphenyl)-1H-indol-2-yl]-N-(1,3-difluoropropan-2-yl)pyrimidine-5-sulfonamide], for which the melting point lay in the range of 209 to 211 °C. For the same molecule, the concentration for half-maximal inhibition (IC50) in data set [1] was 500 to 2000 nM.

In turn, `Cc1cc2c(cc1F)c(C#N)c(-c1ccc(S(=O)(=O)N[C@@H](C)C(F)(F)F)cn1)n2-c1cncc(F)c1` [compound 945, 6-[3-cyano-5-fluoro-1-(5-fluoropyridin-3-yl)-6-methyl-1H-indol-2-yl]-N-[(2S)-1,1,1-trifluoropropan-2-yl]pyridine-3-sulfonamide] yielded a melting point of 199 to 204 °C. Moreover, in data set [1], the IC50 is less than 500 nM.
